Results from article PMC10892093 (Pharmaceutics, 2024).
Where two headings read alike, the source gives them in different places.

Experiments:
UGT1A9 = target: T1, UGT1A9 (Homo sapiens, UniProt O60656); assay: Inhibition of R-oxazepam glucuronidation in rUGT1A9 microsomes (UGT-overexpressing HEK293); format: biochemical; conditions: for IC50: rUGT1A9
T1 construct: expressed in transfected cells; microsomal fraction
T1 sequence (O60656 26-530): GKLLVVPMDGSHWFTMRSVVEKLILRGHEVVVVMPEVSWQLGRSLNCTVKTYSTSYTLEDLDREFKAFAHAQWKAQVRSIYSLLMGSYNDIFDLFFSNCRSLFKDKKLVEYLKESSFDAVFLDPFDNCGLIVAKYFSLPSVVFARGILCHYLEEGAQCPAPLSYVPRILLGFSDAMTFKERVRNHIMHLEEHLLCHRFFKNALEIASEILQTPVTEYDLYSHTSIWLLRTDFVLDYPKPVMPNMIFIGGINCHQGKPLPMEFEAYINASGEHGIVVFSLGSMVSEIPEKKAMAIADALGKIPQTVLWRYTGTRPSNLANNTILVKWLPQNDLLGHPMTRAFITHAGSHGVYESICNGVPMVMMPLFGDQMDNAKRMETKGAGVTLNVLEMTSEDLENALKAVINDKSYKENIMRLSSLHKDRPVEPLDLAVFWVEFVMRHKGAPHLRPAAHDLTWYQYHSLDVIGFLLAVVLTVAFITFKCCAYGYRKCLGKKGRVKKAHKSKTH
Experimental: Human embryonic kidney cells (HEK293) stably overexpressing the single UGTs 1A9, 2B7, and 2B15 have been previously established and described. Cells were grown in DMEM supplemented with 350 μg/mL of geneticin and 10% FBS and harvested in PBS. Microsomal fractions of UGT-overexpressing cell lines were prepared by differential centrifugation using previously described protocols. Briefly, cell homogenates were prepared by resuspending pelleted cells in PBS, followed by five rounds of freeze–thaw cycles prior to homogenization. Recombinant microsomes (rUGTs) were prepared by centrifuging the cell homogenate at a low speed (9000× g for 30 min) followed by ultracentrifugation (34,000× g for 60 min), with the total protein subsequently determined using a BCA assay. Recombinant microsomes (UGT1A9 and 2B7) and homogenates (UGT2B15) were used for inhibition studies.
(§1) A Waters Corp BEH C18 Acquity UPLC column (1.7 µM, 2.1 × 100 mm) was used at a constant temperature of 40 °C for chromatographic separation. An elution gradient was used for 6.5 min with mobile phases A (5 mM ammonium formate) and B (100% methanol) under the following conditions: 90% A for 0.5 min, followed by a linear gradient for 3 min to 60% A, 1 min at 5% A, and re-equilibration for 1 min at 90% A.
(§2) The reaction was initiated by the addition of 4 mM UDPGA as the cofactor and incubated for 2 h at 37 °C. The reaction was terminated by adding 30 µL of an ice-cold stop solution (acetonitrile/methanol; 1:1). The reaction mixtures were centrifuged at 17,000× g for 30 min at 4 °C, and the supernatant was transferred to UPLC sample glass vial for analysis using UPLC–MS/MS (described above). […] As a positive control for inhibition assays, ketoconazole (10 μM and 100 µM) was used as a potential inhibitor of the UGTs 1A9, 2B7, and 2B15. Reactions containing only the cannabinoid vehicle (3% methanol) and without any inhibitor (cannabinoids) were used as a baseline reaction for 100% enzyme activity, while a reaction without UDPGA was used as a negative control. All experiments were performed in three independent experiments.
(§3) Determination of IC50 and Ki Values. […] The nonspecific binding constants (fu,inc) for cannabinoids in HEK293 microsomes, HLM, and HKM were previously determined and used to calculate the inhibition by unbound (‘free’) cannabinoid in each reaction. A nonlinear regression analysis and the following equation were used to calculate the IC50 values:(1) y = Bottom +Top − Bottom / 1 + 10^x − LogIC50A where ‘Bottom’ is the maximum observed inhibition (lowest percent activity) and ‘Top’ is the minimum observed inhibition (highest percent activity) for a given cannabinoid.

[1] = tested on: human kidney microsomes (HKM); assay: Inhibition of R- and S-oxazepam glucuronidation in human kidney microsomes
Experimental: as §1, §2, §3

[2] = cited from earlier work
[3] = tested on: UGTs (R-oxazepam glucuronidation in HLM); assay: Inhibition of R- and S-oxazepam glucuronidation in human liver microsomes; conditions: human, human liver microsomes
Experimental: as §1, §2, §3
(§4) The inhibition constant (Ki) was generated from the in vitro IC50 values assuming competitive inhibition (based on the Cheng–Prusoff equation; [49]). Considering that there have been no reports of the irreversible inhibition (e.g., mechanism-based inhibition) of UGTs, competitive inhibition was assumed as the worst-case scenario (highest inhibition) among all feasible types of reversible inhibitions. The substrate concentration used in the incubations was below the reported Km; therefore, the Ki values were predicted using Equation (2):(2) Ki=IC50/S/Km+1 where Km is Michaelis–Menten constant for the substrate, S is the substrate concentration, and IC50 is half-maximal inhibitory concentration.

[4] = tested on: UGTs (S-oxazepam glucuronidation in HLM); assay: as above; conditions: human, human liver microsomes
Experimental: as §1, §2, §3, §4

[5] = cited from earlier work; remark: listed apart in the source
[6] = tested on: UGTs (R-oxazepam glucuronidation in HKM); assay: Inhibition of R- and S-oxazepam glucuronidation in human kidney microsomes; conditions: human, human kidney microsomes
Experimental: as §1, §2, §3

[7] = tested on: UGTs (S-oxazepam glucuronidation in HKM); assay: as above; conditions: human, human kidney microsomes
Experimental: as §1, §2, §3

[8] = IC50 corrected with fu,inc, read-out: IC50,u, R-Oxazepam Glucuronide
[9] = read-out: IC50, R-Oxazepam Glucuronide
[10] = rUGT1A9 microsomes, 100 µM cannabinoid, vs control without cannabinoid
[11] = read-out: IC50, S-Oxazepam Glucuronide
[12] = read-out: IC50,u, S-Oxazepam Glucuronide, IC50 corrected with fu,inc
[13] = pH 7.4, IC50, R-Oxazepam Glucuronide
[14] = pH 7.4, IC50,u, R-Oxazepam Glucuronide, IC50 corrected with fu,inc
[15] = pH 7.4, IC50, S-Oxazepam Glucuronide
[16] = pH 7.4, IC50,u, S-Oxazepam Glucuronide, IC50 corrected with fu,inc

Molecule	IC50 (UGT1A9; [8]) [µM]	IC50 (UGT1A9; [9]) [µM]	Inhibition of R-oxazepam glucuronide formation (UGT1A9; [10]) [%]	IC50 [1, 9] [µM]	IC50 [1, 11] [µM]	IC50 [1, 12] [µM]	Cmax ([2]; THC dose 20 mg, oral) [nM]	Cmax ([2]; THC dose 25 mg, inhalation) [nM]	Cmax ([2]; THC dose 70 mg, inhalation) [nM]	Cmax ([2]; THC dose 100 mg, inhalation) [nM]	Cmax ([2]; THC dose 130 mg, oral) [nM]	Cmax ([2]; THC dose 160 mg, oral) [nM]	Cmax ([2]; after smoking) [nM]	Cmax ([2]; oral ingestion of 50 mg THC) [nM]	further results
11-hydroxy-Δ^9-tetrahydrocannabinol [11-OH-THC]	1 ± 0.6	13 ± 7.7	87	18 ± 4.3	19 ± 2	1.8 ± 0.19	15	12	32	46	100	120	90	160	IC50 ([1]; read-out: IC50,u, R-Oxazepam Glucuronide, IC50 corrected with fu,inc): 1.7 ± 0.4 µM
CCCCCc1cc(O)c2c(c1)OC(C)(C)[C@@H]1CCC(C)=C[C@@H]21 [THC, Δ^9-tetrahydrocannabinol]	0.5 ± 0.31		83	94 ± 26	> 100	> 4.8	30	250	700	990	200	240	640	530	Cmax ([2]; smoking cannabis cigarettes with 3.55% THC): 515 nM
C=C(C)[C@@H]1CCC(C)=C[C@H]1c1c(O)cc(CCCCC)cc1O [CBD, cannabidiol]	0.053 ± 0.011	1.4 ± 0.29													IC50 at 2 h [3, 13]: 16 ± 7.7 µM; IC50 at 2 h [3, 14]: 0.84 ± 0.39 µM; IC50 at 2 h [4, 15]: 87 ± 46 µM; IC50 at 2 h [4, 16]: 4.5 ± 2.4 µM; Increase in N-desmethylclobazam concentration ([5]; coadministration of clobazam, stiripentol, and CBD 750 mg twice daily): 3.4 fold; Increase in the level of 1-hydroxymidazolam ([5]; oral CBD 750 mg twice daily with midazolam): 12%; inhibition at 2 h, 10 µM (UGT1A9; human, pH 7.4, rUGT1A9 microsomes, 10 µM cannabinoid, vs control without cannabinoid, read-out: Inhibition of R-oxazepam glucuronide formation): 98%; inhibition at 2 h, 100 µM (UGT1A9; human, pH 7.4, rUGT1A9 microsomes, 100 µM cannabinoid, vs control without cannabinoid, read-out: Inhibition of R-oxazepam glucuronide formation): 99%; IC50 at 2 h [6, 13]: 5.9 ± 1 µM; IC50 at 2 h [6, 14]: 0.36 ± 0.062 µM; IC50 at 2 h [7, 15]: 16 ± 7.7 µM; IC50 at 2 h [7, 16]: 0.98 ± 0.48 µM; Cmax ([2]; 1500 mg dose of CBD following a high-fat diet): 4400 nM; Cmax ([2]; CBD 2 mg, inhalation): 6.4 nM; Cmax ([2]; CBD 19 mg, inhalation): 350 nM; Cmax ([2]; CBD 70 mg, oral): 89 nM; Cmax ([2]; CBD 700 mg, oral): 890 nM; Cmax ([2]; CBD 2000 mg, oral): 2500 nM
